This note sets out measurements from US20210261495A1, “COMPOSITIONS AND METHODS OF USING ITACONIC ACID DERIVATIVES” (ERGON PHARMACEUTICALS, LLC, priority 2018, published 2021).

SMILES strings stand for the structures.

In assay [1] the test system is C6-IRG1-9 rat glioma cells. Nature of the assay: C6-IRG1-9 rat glioma cell proliferation, CyQuant. The note with it: various concentrations, 48 hrs. Format: cell-based. How it is done: Tumor Cell Proliferation Assay. This assay was used to assess the anti-tumor properties of a therapeutic agent in vitro. In a typical proliferation assay, cells were cultured to near confluency in the appropriate media. Subsequently, the cells were trypsinized and plated onto 96-well plates at 2,000 or 5,000 cell per well. The cells were cultured for 48 to 96 hours in the presence or absence of the therapeutic agent. Cell proliferation was then determined using spectrophotometry (MTT assay, BrdU assay) or fluorimetry (Cyquant assay).
Inhibition of C6-IRG1-9 Rat Glioma cell proliferation. C6-IRG1-9 cells are rat C6 glioma cells that have been transfected to overexpress IRG1. Overexpression of IRG1 is maintained by culturing the cells in DMEM media containing 0.55 μg/mL puromycin. For the proliferation assays, the cells were plated onto a 96-well plate at a density of 2,000 cells/well. The cells were allowed to adhere overnight; they were subsequently treated with various concentrations of compounds of Formula (2) for 48 hrs. At the end of the incubation period, the number of cells is assessed using the CyQuant Cell Proliferation kit (Thermo Fisher) according to the manufacturer's instructions. The results, shown in FIG. 3, indicate that compounds of Formula (2) are able to reduce or abrogate growth of C6-IRG1-9 cells. In FIG. 3, cell proliferation is expressed as % Untreated Control, defined as: […]
where t is the number of cells present in a treated well at the end of the incubation period, c is the number of cells present in an untreated well at the end of the incubation period, and s is the initial number of cells in the wells prior to initiation of treatment.

In the next assay the test system is hCD8^+ T cells. The experiment in a line: Proliferation of TCR-activated hCD8+ T cells, CFSE dilution. It counts as cell-based, human. Conditions: 10 nM, compared to untreated TCR-activated control cells. The method, then:
Augmentation of CD8^+ T Cell Proliferation. Naïve hCD8^+ T cells were isolated from commercially available buffy coats using magnetic separation and the appropriate kit from Miltenyi Biotec. Cells were then subject to TCR activation using a cocktail of anti-CD2/anti-CD^3/anti-CD28 antibodies. Untreated control and treated cells were included in the experiment. The cells were cultured for 72 hrs in TexMACS media (Miltenyi Biotec) without IL-2 and for an additional 48 hrs in TexMACS media containing 20U human IL-2/mL. Cell division was assessed by flow cytometry using the carboxyfluorescein succimidyl ester (CFSE) dilution method.

In the next assay the target is T1, IRG1 (Homo sapiens, UniProt A6NK06).
T1 construct: Human monocytes, isolated from peripheral blood and differentiated into macrophages; endogenous in cells; host or cells: human monocyte-derived macrophages (hMDMs), M-CSF differentiated, LPS-stimulated
T1 sequence (A6NK06 1-481): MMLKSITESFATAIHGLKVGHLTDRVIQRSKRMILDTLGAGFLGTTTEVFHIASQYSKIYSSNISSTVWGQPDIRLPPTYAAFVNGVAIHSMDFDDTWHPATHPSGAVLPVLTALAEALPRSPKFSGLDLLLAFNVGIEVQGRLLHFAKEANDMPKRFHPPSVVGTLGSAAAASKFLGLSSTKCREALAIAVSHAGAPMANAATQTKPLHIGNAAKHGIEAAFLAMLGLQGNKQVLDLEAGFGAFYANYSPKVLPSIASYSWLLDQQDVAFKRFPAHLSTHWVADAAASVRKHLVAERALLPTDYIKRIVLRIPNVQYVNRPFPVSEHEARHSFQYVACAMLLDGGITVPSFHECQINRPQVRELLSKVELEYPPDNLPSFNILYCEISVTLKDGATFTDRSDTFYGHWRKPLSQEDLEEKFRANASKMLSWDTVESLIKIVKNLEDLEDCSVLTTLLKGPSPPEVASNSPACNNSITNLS
Nature of the assay: Itaconic acid synthesis by LPS-stimulated macrophages (inhibition of IRG1), GC-MS. The note with it: LPS-stimulated hMDMs, 50, 100, 500 μM, LPS 8 hrs. It counts as cell-based. How it is done:
Inhibition of IRG1. Itaconic acid levels are a measure of IRG1 expression/activity. To determine the activity of IRG, hMDMs were stimulated with 100 ng/mL LPS for 8 hrs in the presence or absence of the therapeutic agent. Gas chromatography-mass spectroscopy (GC-MS) was used to estimate the intracellular and extracellular concentration of the itaconic acid. In a typical assay, 1-5×10^6 cells were plated onto a 6-well plate and allowed to adhere overnight. The cells were then stimulated with 0.1-1 μg/mL LPS in the presence or absence of the compound of interest for 8 hrs. The cells were then washed and metabolites were extracted using methanol/water and acetonitrile additions. The aqueous phase of the mixture was dried and metabolites present were derivatized prior to the detection by GC-MS.
Itaconic Acid Synthesis by LPS-Stimulated Macrophages after Treatment with Compound (6). Human monocytes, isolated from peripheral blood and differentiated into macrophages in the presence of 100 ng/mL monocyte colony-stimulating factor (M-CSF) for 5 days, were plated onto a 6-well plate at a density of 1×10^6 cells/well. The cells were allowed to adhere overnight. […] Derivatized metabolites were analyzed by GC-MS. The amount of itaconic acid present in the samples was determined after peak integration. […]

Another assay has as its system TNFα. Nature of the assay: In vitro inflammation assay: TNFα secretion from LPS-stimulated hMDMs, ELISA. It counts as cell-based, human. Conditions: concentrations ≥500 μM, 1 μg/mL LPS, 6 h. The method, then: In Vitro Inflammation Assay. In vitro inflammation was assessed by measuring the concentration of TNFα in the conditioned media of macrophages stimulated with 0.1-1 μg/mL LPS in the presence or absence of the compound of interest after 4-6 hrs.
Inhibition of TNFα secretion. hMDMs were pretreated with various concentrations of Compound (6) for 15 min and then stimulated with 1 μg/mL LPS. Conditioned media were collected 6 h later and TNFα concentrations were determined by ELISA.
A general note: An ELISA detects its analyte on a solid surface through an enzyme-linked reagent.

For `O=C(O)/C(=C\c1ccc(F)cc1)C(Cc1ccccc1)C(=O)O` (centres unmarked) [Compound (6), 2-benzyl-3-[(4-flurophenyl)methylidene]butanedioic acid], in assay [1], the “proliferation of C6-IRG1-9 rat glioma cells” value is “inhibition of proliferation”. In addition, the “proliferation of TCR-activated hCD8+ T cells” value with hCD8^+ T cells is “increased proliferation”. On IRG1, the “extracellular levels of itaconic acid” value is “suppressed” and the “intracellular levels of itaconic acid” value was “suppressed”. Further, the “secretion of TNFα” value in the assay on TNFα was “reduced secretion”.
